Measured values as given in US20040213826A1, “Medical devices and methods for inhibiting proliferation of smooth muscle cells” (priority 2003, published 2004).
Where two headings read alike, the source gives them in different places.

Columns and labels:
[1] = tested on: vascular-endothelial-growth-factor-stimulated human umbilical endothelial cells; details: cited from earlier work
embryoid bodies = details: cited from earlier work
[2] = tested on: rat aortic smooth muscle cells (RASM cells); test: RASM cell proliferation assay (Promega CellTiter 96 AQueous One Solution); format: cell-based; details: for inhibition of RASM cell proliferation (in words) / IC50, inhibition of SMC proliferation: RASM cells, 48 h exposure; for IC50, inhibition of SMC proliferation: light absorption
Description: (§1) Low-passage rat aortic smooth muscle cells (RASM cells) from primary isolates and human aortic smooth muscle cells (HASM cells) were obtained and grown according to the suppliers' instructions. RASM cells were cultured in a medium comprising DMEM+10% FBS+100 U/ml penicillin and […], which was changed every 48 h. Micro-cultures of 5000 cells of each of the RASM and HASM were established in quadruplicate, placedin flat-bottom 96-well micro-titer plates, and exposed to various concentrations of the trichostatin-A, oxamflatin, and rapamycin. Trichostatin-A and oxamflatin were dissolved in dimethyl sulfoxide (DMSO) at various concentrations, and stored at −20° C. prior to use; rapamycin was dissolved in methanol (100 nM). After 48 h following initial exposure, the cultures were pulsed with […] of a cell-proliferation assay solution (Promega CellTiter 96 AQueous One Solution, Catalog G3580), and incubated for 1 h. The cultures' light absorbance was then measured on a BioRad Benchmark micro-plate reader, which was set to the range Ab 490 nm-Ab 655 nm. Light absorbed by the blank was accounted for in the tests. All experiments were repeated at least twice. Cell viability was determined using trypan blue staining, after incubating RASM cells with 100 ng/ml of rapamycin and trichostatin-A for 48 h.
Referring to FIG. 1, micro-cultures consisting of RASM cells were plated into a 96-well dish, and exposed as follows: a number of the micro-cultures were sham exposed, a number were exposed to rapamycin (5, 10, and 50 ng/ml, respectively), and a number were exposed to trichostatin-A ([…], respectively). The RASM cells were exposed for 48 h, prior to assessing cell proliferation.
Referring to FIG. 2, micro-cultures of RASM cells were plated into a 96-well dish, and exposed as follows: a number of the micro-cultures were sham exposed, and a number were exposed to oxamflatin (5, 10, 50, 100, 200 and 500 ng/ml, respectively)., The RASM cells were exposed for 48 h before assessing cell proliferation.

RASM cells = test: Cell viability by trypan blue staining; format: cell-based, rat; details: 100 ng/ml, 48 h
Description: as §1

[3] = tested on: IL-2 expression in Jurkat cells; details: read-out: IC50, inhibition of IL-2 expression; cited from earlier work
[4] = tested on: primary cultured SMCs from rat thoracic aorta; details: 1 μg/ml; cited from earlier work
[5] = tested on: porcine coronary arteries; details: 1 mM; cited from earlier work
[6] = cited from earlier work

Row | Molecule | invasion of type I collagen gel and formation of capillary like structures ([1]; concentration not given) | angiogenesis in embryoid bodies (embryoid bodies; 400 nM) | inhibition of RASM cell proliferation (in words) [2] | IC50, inhibition of SMC proliferation [2] | inhibition of RASM cell proliferation compared with rapamycin ([2]; equal concentrations of 50 ng/ml, 48 h) | cell viability, trypan blue exclusion, versus control cells (RASM cells) | IC50 [3] | invasion of type I collagen gel and formation of capillary like structures ([1]; 400 nM) | angiogenesis in embryoid bodies (embryoid bodies; 10 nM) | PDGF-induced competence of primary cultured SMCs [4] | NO-dependent relaxation of porcine coronary arteries [5] | solubility [6]
1 | O=C(CCCCCCC(=O)Nc1ccccc1)NO [SAHA, suberoylanilide hydroxamic acid] | prevent | inhibit angiogenesis |  |  |  |  |  |  |  |  |  | 
2 | CC(/C=C/C(=O)NO)=C\[C@@H](C)C(=O)c1ccc(N(C)C)cc1 [trichostatin-A] |  |  | significant inhibition of SMC proliferation | ~0.02 µg/mL | greater than that exhibited by rapamycin | no significant difference | 0.073 µM | prevent | inhibit angiogenesis | inhibited | attenuated | soluble in DMSO and ethanol
3 | oxamflatin |  |  | inhibited RASM cell proliferation | ~0.075 µg/mL |  |  |  |  |  |  |  | 
